Results taken from patent publication US20220213126A1, “SMALL MOLECULE AUTOPHAGY INDUCERS FOR THE TREATMENT OF CANCER AND NEURODEGENERATIVE DISEASES” (John Wayne Cancer Institute, priority 2019, published 2022).
Values after ≈ are worked out from the molar mass of the structure shown. Values joined by “and” are separate entries in the source; they are usually repeats but may differ in a detail not shown here. Equal entries are not always repeated. Where two headings read alike, the source gives them in different places.

Assays:
ATM and ULK1 = test: Cell viability assays with siRNA knock down of binding proteins; format: cell-based; conditions: preliminary
Method: To identify the functional target of VMY-BC-1, preliminary cell viability assays were carried out using siRNA to knock down each of the 10 identified binding proteins. […] Considering that that low ULK1 expression is associated with TNBC disease progression (Tang et al., Breast Cancer Res. Treat. 134:549-560, 2012) and autophagy controls the level of various DNA repair and checkpoint proteins in the DNA damage response pathway (Czarny et al., Int. J. Mol. Sci. 16:2641-2662, 2015; Gomes et al., Int. J. Mol. Sci. 18:2351, 2017), ULK1 activity in response to VMY-BC-1 was investigated. Protein extracts were made from MDA-MB-231 cells treated with vehicle control, VMY-BC-1 (10 μM), and Rapamycin (200 nM) at different time points.

Thermodynamic solubility = format: physicochemical; conditions: pH 7.4, aqueous buffer, thermodynamic from solid
Method: (§1) Moreover, PK studies of RSV in humans conclude that even high concentration of RSV might be insufficient to achieve in vivo concentrations required for the systemic prevention of cancer. Therefore, in vitro ADME assays were carried out to assess VMY-BC-1 and to identify properties for further optimization.

LogD octanol-water = format: physicochemical; conditions: pH 7.4, read-out: LogD (octanol-water partition coefficient), pH 7.4
Method: as §1

CYP2C9 = target: T1, CYP2C9 (Homo sapiens, UniProt P11712); test: CYP inhibition in pooled human liver microsomes; format: in vitro ADME
T1 construct: from tissue; host or cells: pooled human liver microsomes
T1 sequence (P11712 whole entry): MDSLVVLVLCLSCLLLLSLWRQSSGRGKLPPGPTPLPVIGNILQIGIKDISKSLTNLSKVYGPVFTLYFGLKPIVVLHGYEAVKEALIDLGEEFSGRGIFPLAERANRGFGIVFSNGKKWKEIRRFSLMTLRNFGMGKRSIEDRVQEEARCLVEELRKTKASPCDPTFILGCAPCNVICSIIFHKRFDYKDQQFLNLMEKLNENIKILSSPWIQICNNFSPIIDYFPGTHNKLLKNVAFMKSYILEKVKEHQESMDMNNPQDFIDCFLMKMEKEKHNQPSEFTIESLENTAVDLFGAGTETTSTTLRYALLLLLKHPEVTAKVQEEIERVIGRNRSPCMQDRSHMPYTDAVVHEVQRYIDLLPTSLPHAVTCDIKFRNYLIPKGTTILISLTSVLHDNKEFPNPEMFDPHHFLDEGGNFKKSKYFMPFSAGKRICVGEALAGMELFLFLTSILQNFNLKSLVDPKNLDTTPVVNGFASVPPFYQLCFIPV

CYP2C19 = target: T2, CYP2C19 (Homo sapiens, UniProt P33261); test: CYP inhibition in pooled human liver microsomes; format: in vitro ADME
T2 construct: from tissue; host or cells: pooled human liver microsomes
T2 sequence (P33261 whole entry): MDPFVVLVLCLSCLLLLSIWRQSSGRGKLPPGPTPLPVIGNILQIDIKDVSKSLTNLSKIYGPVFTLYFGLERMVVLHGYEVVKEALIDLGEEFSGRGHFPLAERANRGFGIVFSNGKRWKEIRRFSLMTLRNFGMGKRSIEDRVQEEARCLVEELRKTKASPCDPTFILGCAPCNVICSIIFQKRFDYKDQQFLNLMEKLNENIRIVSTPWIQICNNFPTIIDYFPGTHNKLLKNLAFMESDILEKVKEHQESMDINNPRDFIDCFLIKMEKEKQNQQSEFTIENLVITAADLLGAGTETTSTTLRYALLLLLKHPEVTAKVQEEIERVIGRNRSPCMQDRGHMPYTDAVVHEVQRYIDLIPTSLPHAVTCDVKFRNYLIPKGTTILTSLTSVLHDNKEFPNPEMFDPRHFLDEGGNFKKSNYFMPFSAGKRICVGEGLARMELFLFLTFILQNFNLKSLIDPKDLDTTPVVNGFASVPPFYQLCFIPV

CYP3A4 = target: T3, CYP3A4 (Homo sapiens, UniProt P08684); test: CYP inhibition in pooled human liver microsomes; format: in vitro ADME
T3 construct: from tissue; host or cells: pooled human liver microsomes
T3 sequence (P08684 2-503): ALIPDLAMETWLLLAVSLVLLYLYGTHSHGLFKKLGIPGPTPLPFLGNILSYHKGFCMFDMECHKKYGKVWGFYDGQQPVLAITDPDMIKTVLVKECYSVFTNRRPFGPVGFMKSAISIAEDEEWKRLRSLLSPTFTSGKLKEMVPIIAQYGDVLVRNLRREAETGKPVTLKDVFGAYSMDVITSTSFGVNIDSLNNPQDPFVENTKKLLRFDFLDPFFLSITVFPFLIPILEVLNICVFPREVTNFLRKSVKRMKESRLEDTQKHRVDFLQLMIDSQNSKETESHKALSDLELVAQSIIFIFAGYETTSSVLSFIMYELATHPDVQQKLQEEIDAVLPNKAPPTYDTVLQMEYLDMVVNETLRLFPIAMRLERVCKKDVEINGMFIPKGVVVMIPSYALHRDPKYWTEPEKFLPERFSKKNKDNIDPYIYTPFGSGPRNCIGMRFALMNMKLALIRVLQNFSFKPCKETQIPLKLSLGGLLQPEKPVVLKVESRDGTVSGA

[1] = tested on: MDA-MB-231 tumor xenografts; test: MDA-MB-231 tumor xenograft efficacy; format: in vivo, athymic nude mice
Method: To evaluate the anti-tumor efficacy of VMY-BC-1 in vivo, MDA-MB-231 tumor xenografts were established in the flanks of athymic nude mice. 5×10^6 MDA-MB-231 TNBC cells in 1×HBSS with 1:1 Matrigel® were implanted subcutaneously in the flank of 5-6 week old female athymic nude mice (CrTac:Ncr-Foxn1^nu; Taconic Biosciences, India). Mice (n=8) were treated with vehicle (2% (v/v) Tween® 80+98% (v/v) of 0.5% (w/v) hydroxypropyl methylcellulose (HPMC) in water) or VMY-BC-1 75 mg/kg PO daily for 14 days. The dose volume was 10 mL/kg. Tumor volume, tumor growth inhibition (TGI), body weight, and clinical signs were monitored. Tumor growth was measured twice weekly using a digital Vernier caliper. Tumor volume was calculated as [length×width^2]/2. TGI was calculated as:
% TGI={(TV ControlFinal−TV ControlInitial)−(TV TreatedFinal−TV TreatedInitial)}×100
(§2) At the end of the study, brain and plasma samples were collected for drug concentration. Tumor tissues were collected for immunohistochemistry, Western blot, and bioanalysis. Statistical analysis of tumor growth in the control and treated groups was performed by Student's T test using GraphPad Prism (Ver. 5.03).

[2] = Plasma vs tumor PK in MDA-MB-231 xenograft mice; format: in vivo, athymic nude mice
Method: FIGS. 10A and 10B are graphs showing plasma (FIG. 10A) and tumor (FIG. 10B) concentrations of VMY-BC-1 in MDA-MB-231 xenograft mice administered 75 mg/kg VMY-BC-1.
as §2
The impact of VMY-BC-1 on autophagy proteins in tumor tissue was also investigated. […] Finally, as shown in Table 4 and FIGS. 10A and 10B, VMY-BC-1 had 3-fold higher drug concentration (Cmax) in tumors than in plasma.

[3] = Mouse brain homogenate binding (in vitro binding study); format: in vitro ADME
Method: Free drug fraction in brain and plasma compartment was determined in vitro (Table 7). Brain to plasma (B/P) ratio was also determined in vivo (Table 8).

[4] = Pharmacokinetics of BC-2 and BC-3 in mouse plasma and brain; format: in vivo, mice; conditions: mouse, in vivo, po, 5 mg/kg
Method: Pharmacokinetics were assessed in mice administered a single oral dose of 5 mg/kg of the indicated compound (Tables 9 and 10).

[5] = Pharmacokinetics of BC-4 and BC-5 in mouse plasma and brain; format: in vivo; conditions: Balb/c mice, single oral dose 5 mg/kg; for Cmax: read-out: Cmax; for Tmax: read-out: Tmax (converted); for half-life: read-out: T½
Method: Pharmacokinetics of BC-4 and BC-5 were compared to BC-1. Pharmacokinetics were assessed in Balb/c mice administered a single oral dose of 5 mg/kg of the indicated compound (Tables 11 and 12).

[6] = athymic nude, mouse, Plasma, oral 75 mg/kg
[7] = athymic nude, mouse, Tumor, oral 75 mg/kg
[8] = mouse, brain, read-out: Brain level, Mean (4) ± SE
[9] = mouse, plasma, read-out: Plasma level, Mean (4) ± SE

For COc1ccc(/C=C/c2cc(OC)cc(B(O)O)c2)cc1 [VMY-BC-1], the “Effect of knock down of ATM and ULK1 on functional activity” value (ATM and ULK1) was “abrogated the functional activity”, the solubility thermodynamic (Thermodynamic solubility) was 0.31 µM (≈ 0.0881 µg/mL) and the logD (LogD octanol-water) was 3.37. The IC50 (CYP2C9) was 78.4 µM, the IC50 (CYP2C19) was 95.7 µM and the IC50 (CYP3A4; read-out: IC50 CYP 3A) was 70 to 100 µM. The IC50 (CYP3A4; read-out: IC50 inhibition of CYP3A4MD2) was greater than 100 µM, the IC50 (CYP3A4; read-out: IC50 inhibition of CYP3A4TST) was greater than 100 µM and the Body weight ([1]; 75 mg/kg PO daily for 14 days) was “without any apparent change in body weight”. The Tumor growth inhibition ([1]; 75 mg/kg PO daily for 14 days) was “approximately 30%”, the “Apoptosis by TUNEL staining” value ([1]; tumor tissue, 75 mg/kg PO) was “significant increase in apoptosis” and the “Reduction in Ki67 proliferation marker vs control” value ([1]; tumor tissue, 75 mg/kg PO) was 50%. The “Phospho-ULK1 and LC3 protein expression in tumors” value ([1]; tumor tissue, 24 hours after treatment) was “upregulated”, the “Drug levels in tumor vs plasma” value ([2]; 75 mg/kg oral) was “higher VMY-BC-1 drug levels in tumor than in plasma” and the AUCextrap ([2]; Plasma, oral 75 mg/kg) was 0.34%. For the same compound, the AUCextrap ([2]; Tumor, oral 75 mg/kg) was 7.48%, the AUCinf ([2]; Tumor, oral 75 mg/kg) was 41005.56 ng·h/g and the AUClast ([2]; Tumor, oral 75 mg/kg) was 37936.36 ng·h/g. It also gave a Kp ([2]; athymic nude, mouse, tumor and plasma, 75 mg/kg oral, read-out: Cmax in tumors relative to plasma) of 3, an AUC(0-inf) [2, 6] of 32300 ng·h/mL and an AUC(0-t) [2, 6] of 32200 ng·h/mL. For the same compound, the Cmax [2, 6] was 4530 ng/mL, the MRT last [2, 6] was 346 min and the Tmax [2, 6] was 30 min. For the same compound, the half-life [2, 6] was 189 min, the Cmax [2, 7] was 13600 ng/g and the MRT last [2, 7] was 116 min. For the same compound, the Tmax [2, 7] was 60 min, the half-life [2, 7] was 91.2 min and the “Bound (%)” value ([3]; Mouse Brain Homogenate) was 30.08%. The fraction unbound ([3]; Mouse Brain Homogenate) was 0.699, the recovery ([3]; mouse, mouse brain homogenate) was 108% and the AUC(0-inf) [4] was 865 ng·h/mL. For the same compound, the “AUC(inf)” value [4] was 149000 ng·min/mL, the Cmax [4] was 578 ng/mL and 1560 ng/g and the “Concentration in brain vs plasma” value [4] was “higher concentration in brain than in plasma”. The Tmax [4] was 30 min, the concentration at 30 min [4] was 578 ng/mL and 1560 ng/g and the concentration at 60 min [4] was 470 ng/mL and 1400 ng/g. For the same compound, the concentration at 180 min [4] was 60 ng/mL and 169 ng/g, the Tmax ([4]; Tmax) was 30 min and the half-life ([4]; T½) was 44 min. The “Brain level, Mean (4) ± SE” value ([5]; 0 min) was “BQL”, the “Plasma level, Mean (4) ± SE” value ([5]; 0 min) was “BQL” and the “Brain level, Mean (4) ± SE” value ([5]; 360 min) was “BQL”. For the same compound, the “Plasma level, Mean (4) ± SE” value ([5]; 360 min) was “BQL”, the “Brain level, Mean (4) ± SE” value ([5]; 900 min) was “BQL” and the “Plasma level, Mean (4) ± SE” value ([5]; 900 min) was “BQL”. For the same compound, the “Brain level, Mean (4) ± SE” value ([5]; 1440 min) was “BQL”, the “Plasma level, Mean (4) ± SE” value ([5]; 1440 min) was “BQL” and the “terminal elimination rate constant (lambda z)” value ([5]; Brain) was 0.0156 min⁻¹. The “terminal elimination rate constant (lambda z)” value ([5]; Plasma) was 0.0157 min⁻¹, the concentration at 30 min [5, 8] was 1560 ± 237 ng/g and the concentration at 60 min [5, 8] was 1400 ± 211 ng/g. It also gave a concentration at 180 min [5, 8] of 169 ± 58 ng/g, a concentration at 30 min [5, 9] of 578 ± 55 ng/mL and a concentration at 60 min [5, 9] of 470 ± 61 ng/mL. The concentration at 180 min [5, 9] was 60 ± 48 ng/mL, the Cmax ([5]; mouse, Brain) was 1560 ng/g and the Tmax ([5]; mouse, Brain) was 30 min. For the same compound, the half-life ([5]; mouse, Brain) was 44.3 min, the AUC(0-inf) ([5]; mouse, Plasma) was 865 ng·h/mL and the AUC(0-t) ([5]; mouse, Plasma, read-out: AUC(0-t) (converted)) was 803 ng·h/mL. It also gave a Cmax ([5]; mouse, Plasma) of 578 ng/mL, a Tmax ([5]; mouse, Plasma) of 30 min and a half-life ([5]; mouse, Plasma) of 44 min.
